# Assay results: patent publication US20250319034A1, “MICROSPHERE PRODUCTION METHOD” (VITALTE LIFESCIENCES INC., priority 2024, published 2025)
# Test: T release study in saline incubation media
# Type: physicochemical
# Settings: saline incubation media, 2, 4 and 6 hours
# Experimental: In order to compare the release rate results of hydrogel encapsulated T to pelleted T, larger gels had to be prepared as the T pellets which the hydrogels are intended to replace are 25 mg, where the E2 pellets are merely 6 mg. Thus, approximately 83 mg of hydrogel at 30% T loading and 1% HA were prepared. In order to achieve even or consistent crosslinking in these much larger hydrogel samples, Likarda's patented micromolds (shown in FIG. 21) were employed. After formation, the encapsulated T was removed from the molds and placed in tubes to be rotated for an hour. The encapsulated T hydrogels were then removed from the tubes and stored in Dulbecco's PBS buffer. The large hydrogel blocks encapsulating T were then tested and compared to 25 mg T pellets and micronized T powder.
# The T powder was produced as a 2.5 mg/mL slurry in buffer to reach the near saturation point of T in the buffer. Samples of the T powder slurry were removed from only the top layer of the slurry fluid to avoid aspirating T particles in the slurry that may have precipitated at to the bottom. T pellets were collected directly from the vials in which they were stored. The 83 mg hydrogels containing 30% T were collected from Dulbecco's PBS buffer, rinsed, and dried. Each of the collected samples was then placed in a separate container of incubation media (saline in this instance) for the release studies. […]
smiles,measurement,value
"C[C@]12CC[C@H]3[C@@H](CCC4=CC(=O)CC[C@@]43C)[C@@H]1CC[C@@H]2O [T powder, Testosterone]",approximate saturation level of T in saline,about 1.5 mg/L
